Counter-ions that a name gives are not always drawn.
What was measured:
[1] = test system: neutrophile of guinea pig; experiment: Inhibition of active oxygen (O2^-) generation in FMLP-stimulated neutrophile; type: cell-based, female Hartley guinea pigs
Protocol: To female Hartley guinea pigs of five weeks old (purchased from Japan SLC), 20 ml of the 0.2% aqueous solution of glycogen (Type II; Oyster; Sigma) dissolved in saline which was previously sterilized with autoclave, was intraperitoneally administered. The guinea pigs were sacrificed by bleeding 16 hours after the administration, and 20 ml of the saline containing heparin at a concentration of 10 U/ml was intraperitoneally injected to recover the peritoneal exudate. Hereinafter all the operations were carried out under ice-water cooling condition except for incubation. The recovered exudate was centrifuged at 1,000 rpm for 10 minutes, the precipitate obtained was hemolyzed with purified water for 30 seconds, and returned into isotonicity with the Hanks' solution at double the concentration (not containing phenol red; Nissui Seiyaku), and further it was centrifuged at 1,000 rpm for 10 minutes. The precipitate obtained was suspended in the Hanks' solution and centrifuged and the operations were repeated once more to give the neutrophile.
The collected neutrophile of the guinea pigs was suspended in the Hanks' solution, the number of leukocyte in the suspension was determined by a cytometer (System K-2000; Toa Iyo Denshi Co.), and the suspension diluted with the Hanks' solution to 2×10^6 cells/ml was used in the determination as the cell suspension. After mixing 1 ml of the cell suspension and 10 μl of the purified keratan sulfate oligosaccharide (keratan sulfate tetrasaccharide (I), the keratan sulfate pentasaccharide (II), or the keratan sulfate disaccharide (III)) prepared in Example 1 described above, and the mixture was preincubated at 37° C. for an hour. […]
The supernatant obtained by the centrifugation was separated and the absorbance thereof was determined at 550 nm to estimate the quantity of reducing cytochrome c per 2×10^6 cells after the 10 minutes incubation. The quantity of reducing cytochrome c increases with the generation of active oxygen (O2^-). […]

MRL-lpr/lpr mice = experiment: Repeated intramuscular administration for 28 days in MRL mice (submandibular lymph node weight); type: in vivo
Protocol: The effect of the keratan sulfate oligosaccharide was examined on MRL mice which are autoimmune disease model mice.
The PBS solution of the purified keratan sulfate disaccharide (III) which was prepared in Example 1 described above at a dose of 1 mg/kg, 5 mg/kg, or 25 mg/kg weight (hereinafter referred to as the 1 mg/kg administered group, the 5 mg/kg administered group, and the 25 mg/kg administered group, respectively), and PBS as the control (hereinafter sometimes referred to as the control group) was intramuscularly injected, respectively, to the femoral region of MRL-lpr/lpr mice seven times a week for four weeks. After that, the mice were subjected to anatomization, and the weight of submandibular lymph nodes was determined to obtain the average weight. In each group, six mice were used. Further, in the figure, * represents that it has the significant difference with p<0.05 (wherein "p" means a level of significance by the Bonferroni multiple comparative test).

papain-induced arthritis [2] = experiment: Papain-induced bilateral arthritis model, intra-articular administration (volume of synovial fluid); type: in vivo, Japanese white rabbits (female); settings: for Volume of Synovial Fluid: 7 days, n = 8, p < 0.05, control 729, normal 437
Protocol: (§1) The anti-inflammatory effect of the keratan sulfate oligosaccharide with rabbits of the papain-induced arthritis model was examined using the volume of synovial fluid as an indication.
Into the articular cavity of both knee joint of Japanese white rabbits (female) of 3 kg weight, 150 μl of the saline solution of papain (1%) was injected to prepare the arthritis model. One day after injecting papain, 150 μl of the PBS solution of the purified keratan sulfate tetrasaccharide (I) (1% solution; 1.5 mg/joint) which was prepared in Example 1 was injected into the articular cavity of the left joint (hereinafter referred to as "the keratan sulfate tetrasaccharide (I) administered foot"), and 150 μl of PBS was injected into that of the right joint (hereinafter referred to as "the keratan sulfate tetrasaccharide (I) unadministered foot"). Hereinafter the rabbits subjected to administration of the keratan sulfate tetrasaccharide (I) are referred to as "the administered group". And the rabbits subjected to the papain injection only (hereinafter referred to as the control group) and the normal rabbits not subjected to the papain injection (hereinafter referred to as the normal group) were also examined in the same manner hereinafter.
Seven days after the injection, the blood was drawn from the auricular artery, and plasma containing heparin was separated. After drawing the blood, the rabbits were anatomized and the both knee joint were separated. The articular cavity was washed with 2 ml of saline three times to recover the synovial fluid. The calcium concentrations in the plasma and the recovered synovial fluid were determined, and the volume of synovial fluid was calculated from the following formula.
Volume of Synovial Fluid (ul/articulation)=Amount of Calcium in Recovered
Synovial Fluid (μg/articulation)/Concentration of Calcium in Plasma
In the table, "n" represents the number of rabbits in each group used in the experiment.

papain-induced arthritis [3] = experiment: Papain-induced bilateral arthritis model, intramuscular administration (volume of synovial fluid); type: in vivo, Japanese white rabbits (female); settings: 0.5 mg/kg intramuscular
Protocol: as §1
Into the articular cavity of both knee joint of Japanese white rabbits (female) of 3 kg weight, 150 μl of the saline solution of papain (1%) was injected to prepare the arthritis model. […]
Seven days after the injection, the blood was drawn from the auricular artery, and plasma containing heparin was separated. […] The calcium concentrations in the plasma and the recovered synovial fluid were determined, and the volume of synovial fluid was calculated from the following formula. […]
The arthritis model was prepared by the method described in (1-1), and one day after injecting papain, 150 μl of the PBS solution of the purified keratan sulfate tetrasaccharide (I) (1% solution; 0.5 mg/kg weight) which was prepared in Example 1 was injected into the hip muscle of the left side (hereinafter referred to as "the keratan sulfate tetrasaccharide (I) administered group"). […] Seven days after the injection, the volume of synovial fluid was calculated in the same manner as in (1-1).

SMILES | inhibitory function for generation of active oxygen (O2^-) (FIG. 10) [1] | weight increase in submandibular lymph nodes (FIG. 14) (MRL-lpr/lpr mice; 5 mg/kg i.m., p<0.05) | weight increase in submandibular lymph nodes (FIG. 14) (MRL-lpr/lpr mice; any dose (1, 5, 25 mg/kg i.m.)) | Volume of Synovial Fluid (papain-induced arthritis [2]; Administered Foot, 1.5 mg/joint intra-articular, SD 147) | Volume of Synovial Fluid (papain-induced arthritis [2]; Unadministered Foot, 1.5 mg in other joint, SD 130) | volume of synovial fluid (result in words) (papain-induced arthritis [2]; intra-articular, bilateral model) | volume of synovial fluid (result in words) (papain-induced arthritis [3]; bilateral model) | Volume of Synovial Fluid (papain-induced arthritis [3]; 7 days, n = 12, SD 65.8, p < 0.01, control 729, normal 437) | inhibition of generation of active oxygen (O2^-) (FIG. 10) ([1]; 0.01, 0.1 and 1.0 mg/ml)
CC(=O)N[C@H]1C(O)O[C@H](COS(=O)(=O)O)[C@@H](O[C@@H]2O[C@H](COS(=O)(=O)O)[C@H](O)[C@H](O)[C@H]2O)[C@@H]1O (stereo partly drawn) [keratan sulfate disaccharide (III), Gal(6S)β1-4GlcNAc(6S)] | slightly observed | a significant suppressive effect on the weight increase was observed compared with the control group | a suppressive effect on the weight increase in submandibular lymph nodes was observed |  |  |  |  |  | 
CC(=O)N[C@H]1[C@H](O[C@H]2[C@@H](O)[C@@H](COS(=O)(=O)O)O[C@@H](O[C@H]3[C@H](O)[C@@H](NC(C)=O)C(O)O[C@@H]3COS(=O)(=O)O)[C@@H]2O)O[C@H](COS(=O)(=O)O)[C@@H](O[C@@H]2O[C@H](COS(=O)(=O)O)[C@H](O)[C@H](O)[C@H]2O)[C@@H]1O (stereo partly drawn) [keratan sulfate tetrasaccharide (I), Gal(6S)β1-4GlcNAc(6S)β1-3Gal(6S)β1-4GlcNAc(6S)] |  |  |  | 530 µL | 537 µL | significantly less than that in the control group | significantly less than that in the control group | 561 µL | remarkably inhibits the generation of active oxygen (O2^-) depending upon the concentration
